{"source": "patent US11919972B2", "about": "“Peptide libraries with non-canonical amino acids” (REGENERON PHARMACEUTICALS, INC., priority 2018, dated 2024)", "key": {"[1]": {"system": "CD8+ SupT1 cells", "assay": "Screen of focused OBOC peptide library against CD8+ cells", "format": "cell-based", "details": "10% FBS", "method": "In addition to screening the focused library against recombinant human CD8 protein, the library was screened against cells. Non-specific PCCs were identified and removed by an anti-screen against CD8− Jurkat cells. The pre-cleared library entered into a screen against CD8+ SupT1 cells in 2% FBS for 1 h at 4° C. […] Non-canonical amino acids including cyclopropyl alanine, thiazolyl alanine, 4-fluorophenylalanine, and 1-methyltryptophan were identified among the hits. The consensus sequence from the hits in Table 6 is trrkr (SEQ ID NO:30).\nBecause of the large number of electrostatic hits in the screen with 2% FBS, additional screens were performed varying the blocking conditions to decrease the quantity of electrostatic hits. In particular, screens using 10% FBS gave no hits with any electrostatic amino acids. These conditions ultimately identified tnpks (SEQ ID NO:31) and tp(CyA)k(Fp)."}, "[2]": {"system": "CD8+ SupT1 cells", "assay": "Flow cytometry binding to CD8+ SupT1 and CD8− Jurkat cells", "format": "cell-based", "details": "FIG. 1", "text": "FIG. 1 is a graph binding of some example peptides to CD8+ cells (SuppT1 cells) and CD8− cells (Jurkat cells).\nThe hits identified in the non-canonical screen were further evaluated in CD8+ SupT1 and CD8− Jurkat cells by flow cytometry."}}, "note": "Square brackets hold non-standard residues; d marks the D form. Ends that are not written are not given here. Ala(cPr) = N[C@@H](CC1CC1)C(=O)O", "data": [{"substance": "tnpks: hit identified in CD8+ cell screen using 10% FBS (TNPKS; (1)..(5) D amino acids)", "values": [{"measurement": "hit in CD8+ cell screen with varied blocking conditions", "setting": "[1]", "result": "identified"}]}, {"substance": "tp(CyA)k(FP): hit sequence following CD8+ cell screen; also identified in 10% FBS screen ([dT][dP][Ala(cPr)][dK]X; not fully specified (residue 5); printed as tp(CyA)k(FP))", "values": [{"measurement": "binding to CD8 compared with parent compound tfpkk", "setting": "[2]", "result": "improved binding to CD8 over the parent compound"}, {"measurement": "hit in CD8+ cell screen with varied blocking conditions", "setting": "[1]", "result": "identified"}]}]}
